{
  "source": "patent US20110044969A1",
  "about": "“Antimicrobial Agents for the Treatment of Campylobacter Species in the Crop of a Bird” (NOFIMA MAT AS, priority 2008, published 2011)",
  "test_system": "C. jejuni strain 484, strain 523 and strain 534",
  "settings": "pH 6.0 and 6.5; acid 0.1, 0.01, 0.001, 0.0001%; 48 hours at 42° C. microaerophilic; growth by spectrophotometer; all three strains",
  "experimental": "Three C. jejuni strains were compared in vitro for sensitivity for benzoic acid and sorbic acid at two different pH values. These strains were C. jejuni strain 484 (from poultry leg), C. jejuni strain 523 (from poultry faeces), and C. jejuni strain 534 (from poultry faeces). Different combinations of pH (6.0 and 6.5) and concentrations of the acids (0.1, 0.01, 0.001, and 0.0001%) were tested in Mueller-Hinton broth (MH) with supplement for Campylobacter (SR232E; Oxoid Ltd., Basingstoke, UK). The strains were incubated in microaerophilic atmosphere for 48 hours at 42° C., and growth was measured by spectrophotometer.\nThree C. jejuni strains were tested for in vitro growth at different combinations of pH (6.0 and 6.5) and concentrations of sorbic- and benzoic acid (0.1, 0.01, 0.001, and 0.0001%).",
  "data": [
    {"molecule": "C/C=C/C=C/C(=O)O", "note": "[sorbic acid]", "values": [
      {"measurement": "in vitro growth reduction of C. jejuni", "result": "highest growth reduction"}
    ]}
  ]
}
